# Source: article PMC4305006 (Chemistry & biology, 2014)
# Legend:
# Format in all cases: cell-based, Mycobacterium tuberculosis
# [1] = tested on: Mtb BioA under-expression strain (BioA-UE); settings: 90% inhibition, biotin-free Sauton's medium, 14 days
# [2] = tested on: Mtb H37Rv without supplemental biotin; settings: 90% inhibition, 14 days
# [3] = tested on: Mtb H37Rv with 1 μM supplemental biotin
smiles,measurement,setting,value
"C=C(CCC(=O)O)c1nc2ccccc2s1 [Compound 13, 4-(benzothiazol-2-yl)pentenoic acid]",MIC90 BioA-UE,[1],0.7 µM
same,MIC90 WT -biotin,[2],2.5 µM
same,shift of MIC upon addition of biotin,[3],approximately 3 fold
same,MIC90 WT+biotin,"[3]; 90% inhibition, Mtb H37Rv with 1 μM supplemental biotin, 14 days",8.7 µM
